Results: patent US20260217674A1 (priority 2023, published 2026)
Where two headings read alike, the source gives them in different places.

Tests used:
[1] = biological target: acetylcholinesterase (AChE) (Homo sapiens, UniProt P22303); assay: biochemical; format: biochemical; details: for inhibition at 0.01 µM: read-out: % Inhibition (10 nM); for inhibition at 0.1 µM: read-out: % Inhibition (100 nM); for inhibition at 0.001 µM: read-out: % Inhibition (1 nM)
Experimental: A solution of each tested compound is prepared by dissolving the compound in DMSO at 1 mM stock solution and diluting with water to the following concentration 100 nM, 10 nM and 1 nM.
The procedure of MAK119 kit assay of Sigma Aldrich (colorimetric test) has been followed as described:
The Working Reagent (MAK119C) of the kit is prepared fresh and used within 30 minutes.
A solution B made with […] of water and […] of Calibrator (MAK119B of the kit) is distributed into separate wells of the 96-well plate. […] of the solution of the tested compound is added into wells and then […] of the solution A is added to all sample wells.
The plate was incubated at room temperature for 2 min and the initial absorbance at 412 nm (A412)ini was measured. After 10 min of incubation at room temperature the final measurement (A412)final.
The following calculation is then achieved: […] Inhibition was calculated by comparing the absorbance of the samples containing the tested compounds at 412 nm (A412) and of the absorbance of the negative and positive controls after 12 min of incubation.

VGLUT3^T8I/T8I mice = assay: Activity-based anorexia (ABA) model in hypocholinergic VGLUT3^T8I/T8I mice; format: in vivo; details: for percentage of mice weighing at least 75% of their baseline body weight: after 8 days
Source text: Self-starvation behaviors are modeled in the activity-based anorexia (ABA) test (Klenotich, S. J., Dulawa, 2012 Methods Mol Biol 829, 377-93). In this test, animals are housed in the presence of a running wheel. Access to food is progressively restricted over a period of 8 days. For these animal experiments, an hypocholinergic mouse model was used. The type 3 atypical vesicular transporter (VGLUT3) is expressed by all cholinergic striatal interneurons (El Mestikawy et al. 2011, Nat Rev Neurosci 12(4), 204-16).
In 2015, the El Mestikawy team discovered a p.T8I variant of VGLUT3 expressed in patients suffering from substance use disorder and from eating disorders (Sakae et al. Mol Psychiatry, 2015, 20(11), 1448-59). Mice expressing this variant (VGLUT3^T8I/T8I mice) have a reduced cholinergic tone in the striatum and are more vulnerable to self-starvation in the ABA model. In other terms, VGLUT3^T8I/T8I mice present the same main symptomology than anorexic patients and are considered to be a model of choice for anorexia.
The ABA model was performed as described by Klenotich and Dulawa (Klenotich, S. J., Dulawa, 2012 Methods Mol Biol 829, 377-93) and as previously reported (Favier, M., et al., J Clin Invest 130, 6616-6630 (2020)). For habituation, all mice were individually housed in cages with running wheels for 7 days with unrestricted access to food, water and running wheel. After the adaptation period, all mice were maintained in the same running wheel cages for 8 additional days. Access to food was progressively restricted, from 8 h (day 1) to 2 h (day 8) per day. Body weight and food intake were measured daily before and after food access, respectively. […]. Mice were treated daily 30 min before the start of food access, during both baseline and food restriction phases.

[2] = compound 10 nM, absorbance 412 nm, 12 min incubation
[3] = compound 100 nM, absorbance 412 nm, 12 min incubation
[4] = compound 1 nM, absorbance 412 nm, 12 min incubation

Chain of acetylcholinesterase (AChE) (P22303 32-614): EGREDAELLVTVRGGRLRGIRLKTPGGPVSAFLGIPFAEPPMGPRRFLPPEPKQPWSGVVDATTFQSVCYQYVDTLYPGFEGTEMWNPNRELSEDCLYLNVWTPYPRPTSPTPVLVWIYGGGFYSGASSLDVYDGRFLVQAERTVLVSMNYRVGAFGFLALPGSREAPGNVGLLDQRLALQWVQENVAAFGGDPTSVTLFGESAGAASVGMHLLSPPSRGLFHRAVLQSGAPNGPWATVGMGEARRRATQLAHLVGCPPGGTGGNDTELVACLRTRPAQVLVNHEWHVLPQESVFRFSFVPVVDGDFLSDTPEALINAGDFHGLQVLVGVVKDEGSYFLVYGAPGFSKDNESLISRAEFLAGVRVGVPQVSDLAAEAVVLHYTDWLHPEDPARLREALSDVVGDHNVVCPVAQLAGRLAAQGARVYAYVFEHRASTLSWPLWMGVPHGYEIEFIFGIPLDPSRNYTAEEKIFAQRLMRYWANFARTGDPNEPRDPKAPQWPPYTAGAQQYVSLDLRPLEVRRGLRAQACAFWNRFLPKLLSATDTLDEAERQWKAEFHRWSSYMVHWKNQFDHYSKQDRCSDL

SMILES: COc1cc2c(cc1OCc1ccc3cccc(N)c3[n+]1C)CC(CC1CCN(Cc3ccccc3)CC1)C2=O (centres unmarked) [Compound 62]
- inhibition at 0.01 µM [1, 2]: 100%
- inhibition at 0.1 µM [1, 3]: 100%

SMILES: COc1cc2c(cc1OCc1ccc3ccccc3[n+]1C(C)C)CC(CC1CCN(Cc3ccccc3)CC1)C2=O (centres unmarked) [Compound 76]
- inhibition at 0.01 µM [1, 2]: 100%
- inhibition at 0.1 µM [1, 3]: 100%

SMILES: COc1cc2c(cc1OCc1ccc3c(Cl)cc[n+](C)c3c1)CC(CC1CCN(Cc3ccccc3)CC1)C2=O (centres unmarked) [Compound 63]
- inhibition at 0.001 µM [1]: 75%
- inhibition at 0.01 µM [1]: 75%
- inhibition at 0.1 µM [1]: 75%

SMILES: COc1cc2c(cc1OC[n+]1cccc3cccc(N)c31)CC(CC1CCN(Cc3ccccc3)CC1)C2=O (centres unmarked) [Compound 59]
- inhibition at 0.01 µM [1, 2]: 100%
- inhibition at 0.1 µM [1, 3]: 100%

SMILES: COc1cc2c(cc1OCc1cc[n+](C(C)C)c3ccccc13)CC(CC1CCN(Cc3ccccc3)CC1)C2=O (centres unmarked) [Compound 75]
- % Inhibition (10 nM) [1, 2]: 100%
- % Inhibition (100 nM) [1, 3]: 100%

SMILES: COc1cc2c(cc1OC[n+]1cccc3ccc(O)cc31)CC(CC1CCN(Cc3ccccc3)CC1)C2=O (centres unmarked) [Compound 57]
- inhibition at 0.01 µM [1]: 100%
- inhibition at 0.1 µM [1]: 100%

SMILES: COc1ccc2c(c1)C=C/C(=C/Oc1cc3c(cc1OC)C(=O)C(CC1CCN(Cc4ccccc4)CC1)C3)N2C(C)C (centres unmarked) [Compound 56]
- inhibition at 0.001 µM [1, 4]: 50%
- inhibition at 0.01 µM [1, 2]: 75%
- inhibition at 0.1 µM [1, 3]: 100%
- percentage of mice weighing at least 75% of their baseline body weight (VGLUT3^T8I/T8I mice; 0.01 mg/kg daily i.p.): about 90%
- percentage of mice weighing at least 75% of their baseline body weight (VGLUT3^T8I/T8I mice; 0.03 mg/kg daily i.p., FIG. 1(B)): 60%
- efficiency in reducing the food restriction (food intake) (VGLUT3^T8I/T8I mice; donquine 0.01 mg/kg versus donepezil 0.03 mg/kg daily i.p., FIG. 1(C)): more efficient than donepezil at 0.03 mg/kg

SMILES: COc1cc2c(cc1OCc1ccc3ccc[n+](C)c3c1)CC(CC1CCN(Cc3ccccc3)CC1)C2=O (centres unmarked) [Compound 64]
- inhibition at 0.001 µM [1, 4]: 25%
- inhibition at 0.01 µM [1, 2]: 100%
- inhibition at 0.1 µM [1, 3]: 100%

SMILES: COc1cc2c(cc1OC)C(=O)C(CC1CCN(Cc3ccccc3)CC1)C2 (centres unmarked) [Donepezil, donepezil, reference compound]
- efficiency in reducing the number of mice losing weight until 75% of baseline bodyweight or less (VGLUT3^T8I/T8I mice; donepezil 0.03 mg/kg versus donquine 0.01 mg/kg daily i.p., FIG. 1(D)): less efficient
